In ChEMBL document CHEMBL1240304, “Host sphingolipid biosynthesis as a target for hepatitis C virus therapy” (Nat Chem Biol, 2005):
pIC50: −log10 of the molar value. Calls of active or inactive are those of the source. The calls are words filed in the database; no cut-off is given here.

Tests used:
[1] = test system: Hepatitis C virus; experiment: Binding affinity at HCV NS5B at 1 nmol by ELISA; conditions: Hepacivirus hominis; Con1
[2] = test system: Hepatitis C virus; experiment: Antiviral activity against Hepatitis C virus (isolate Con1) genotype 1b in human Huh-7/3-1 cells assessed as reduction in NS5B protein level in golgi-derived detergent-resistant membrane at 1 uM after 72 hrs by immunoblotting analysis; type: functional, organism-based; conditions: Hepacivirus hominis
[3] = Cytotoxicity against human Huh-7/3-1 cells assessed as reduction in cell viability; type: cell-based
[4] = test system: Hepatitis C virus; experiment: Antiviral activity against Hepatitis C virus (isolate Con1) genotype 1b in human Huh-7/3-1 cells assessed as inhibition of HCV replication; type: functional, organism-based, Hepacivirus hominis; conditions: isolate Con1, Huh-7
[5] = Cytotoxicity against human Huh-7/3-1 cells assessed as cell viability at 0.1 to 11 uM after 72 hrs by WST-8 assay; type: cell-based
[6] = test system: Hepatitis C virus; experiment: Antiviral activity against Hepatitis C virus (isolate Con1) genotype 1b in human Huh-7/3-1 cells assessed as reduction in NS3 protein level at 1 uM by Western blot analysis in presence of 5 uM C2-ceramide; type: functional, organism-based; conditions: Hepacivirus hominis
[7] = Cytotoxicity against human Huh-7/3-1 cells assessed as cell viability at 0.1 to 100 uM after 72 hrs by Trypan Blue exclusion test; type: cell-based
[8] = test system: Hepatitis C virus; experiment: Relocation of NS5B in human Huh-7/3-1 Hepatitis C virus (isolate Con1) genotype 1b replicon cells using golgi-derived detergent-resistant membrane at 10 nM after 72 hrs by immunoblotting analysis; type: functional, organism-based; conditions: Hepacivirus hominis
[9] = test system: Hepatitis C virus; experiment: Antiviral activity against Hepatitis C virus (isolate Con1) genotype 1b in human Huh-7/3-1 cells assessed as reduction in NS3 protein level in golgi-derived detergent-resistant membrane at 1 uM after 72 hrs by immunoblotting analysis; type: functional, organism-based; conditions: Hepacivirus hominis
[10] = test system: Hepatitis C virus; experiment: Antiviral activity against Hepatitis C virus (isolate Con1) genotype 1b in human Huh-7/3-1 cells assessed as reduction in NS3 protein level at 1 uM by Western blot analysis in presence of 1 uM C2-ceramide; type: functional, organism-based; conditions: Hepacivirus hominis
[11] = test system: Hepatitis C virus; experiment: Antiviral activity against Hepatitis C virus (isolate Con1) genotype 1b in human Huh-7/3-1 cells assessed as reduction in NS5A protein level in golgi-derived detergent-resistant membrane at 1 uM after 72 hrs by immunoblotting analysis; type: functional, organism-based; conditions: Hepacivirus hominis
[12] = test system: Hepatitis C virus; experiment: Antiviral activity against Hepatitis C virus (isolate Con1) genotype 1b in human Huh-7/3-1 cells assessed as decrease in replicon RNA at 0.01 to 1 uM after 72 hrs by Northern blot analysis; type: functional, organism-based; conditions: Hepacivirus hominis
[13] = test system: Hepatitis C virus; experiment: Antiviral activity against Hepatitis C virus (isolate Con1) genotype 1b in human Huh-7/3-1 cells assessed as reduction in NS5B protein level at 100 nM by Western blot analysis; type: functional, organism-based; conditions: Hepacivirus hominis, TDE = time-dependent effect
[14] = target: T1, Serine palmitoyltransferase 1 (Homo sapiens, UniProt O15269); experiment: Inhibition of human recombinant SPT1 activity in LCB1 transfected human HEK293 cells; type: cell-based
T1 sequence (O15269 whole entry): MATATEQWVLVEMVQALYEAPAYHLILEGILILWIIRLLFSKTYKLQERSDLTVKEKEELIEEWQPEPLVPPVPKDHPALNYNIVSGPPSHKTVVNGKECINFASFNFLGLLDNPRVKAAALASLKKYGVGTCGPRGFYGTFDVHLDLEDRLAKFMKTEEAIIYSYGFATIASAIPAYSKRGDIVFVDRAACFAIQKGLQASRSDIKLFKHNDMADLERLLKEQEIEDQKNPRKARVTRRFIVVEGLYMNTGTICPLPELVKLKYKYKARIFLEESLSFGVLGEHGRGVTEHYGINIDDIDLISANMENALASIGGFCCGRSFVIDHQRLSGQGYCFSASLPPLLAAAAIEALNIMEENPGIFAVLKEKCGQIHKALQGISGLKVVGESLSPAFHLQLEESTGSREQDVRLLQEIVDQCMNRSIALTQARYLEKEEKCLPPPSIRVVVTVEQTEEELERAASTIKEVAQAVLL

[15] = test system: Hepatitis C virus; experiment: Antiviral activity against Hepatitis C virus (isolate Con1) genotype 1b in human Huh-7/3-1 cells assessed as reduction in NS3 protein level at 100 nM by Western blot analysis; type: functional, organism-based; conditions: Hepacivirus hominis, TDE = time-dependent effect
[16] = Cytotoxicity against human Huh-7/3-1 cells assessed as cell cycle progression at 0.02 to 50 uM after 72 hrs by flow-cytometry; type: cell-based
[17] = test system: Hepatitis C virus; experiment: Antiviral activity against Hepatitis C virus (isolate Con1) genotype 1b in human Huh-7/3-1 cells assessed as disappearance of NS3 protein from perinuclear region at 100 nM after 96 hrs by immunostaining; type: functional, organism-based; conditions: Hepacivirus hominis
[18] = Cytotoxicity against human Huh-7/3-1 cells assessed as cell viability at 0.1 to 100 uM after 72 hrs by WST-8 assay; type: cell-based
[19] = test system: Hepatitis C virus; experiment: microbe, parasite or virus in culture; conditions: isolate Con1, Huh-7, 72 h
Description: Antiviral activity against Hepatitis C virus (isolate Con1) genotype 1b in human Huh-7/3-1 cells assessed as inhibition of HCV replication after 72 hrs by luciferase assay

[20] = test system: Hepatitis C virus; experiment: Antiviral activity against Hepatitis C virus (isolate Con1) genotype 1b in human Huh-7/3-1 cells assessed as inhibition of HCV replication at 0.1 to 100 nM after 72 hrs by luciferase assay; type: functional, organism-based; conditions: Hepacivirus hominis
[21] = test system: Hepatitis C virus; experiment: Antiviral activity against Hepatitis C virus (isolate Con1) genotype 1b in human Huh-7/3-1 cells assessed as reduction in NS5A protein level at 100 nM by Western blot analysis; type: functional, organism-based; conditions: Hepacivirus hominis, TDE = time-dependent effect
[22] = organism: Homo sapiens; experiment: Effect on Caveolin-2 localization in human Huh-7/3-1 replicon golgi-derived detergent-resistant membrane at 1 uM after 72 hrs by immunoblotting analysis; type: functional
[23] = test system: Hepatitis C virus; experiment: microbe, parasite or virus in culture; conditions: isolate Con1, Huh-7
Description: Antiviral activity against Hepatitis C virus (isolate Con1) genotype 1b in human Huh-7/3-1 cells assessed as inhibition of SPT activity in presence of 1 uM sphinganine

[24] = test system: Hepatitis C virus; experiment: microbe, parasite or virus in culture; conditions: isolate Con1, Huh-7; remark: listed apart in the source
Description: Antiviral activity against Hepatitis C virus (isolate Con1) genotype 1b in human Huh-7/3-1 cells assessed as inhibition of SPT activity in presence of 3 uM sphinganine

In the case of `CCCCCCCCCCCCCC/C=C/[C@@H](O)[C@H](CO[C@@H]1O[C@H](CO)[C@H](O)[C@H](O)[C@H]1O)NC(=O)CCCCCCCCCCCCCCCCC`, the Activity [1] was “Active”.
For `CCCCCCC(=O)CCCCCC/C=C/C[C@@H](O)[C@H](O)[C@@](N)(CO)C(=O)O`, the Activity [2] was “Active”.
`CCCCCCCCCCCCCCCC(=O)NC(CN1CCOCC1)C(O)c1ccccc1` (stereo not given) showed an Activity [3] of 5.3 µM and a pIC50 [4] of 5.92.
For `CCCCCCCCCCCC(=O)N[C@@H](CO)C[C@@H](O)c1ccccc1`, the Activity [5] was “Non-toxic”.
For `CCCCCCCC(=O)CCCCCC/C=C/[C@H](C(=O)N[C@@H](Cc1ccc(OCC=C(C)C)cc1)C(=O)O)[C@@](O)(CC(=O)O)C(=O)O`, the Activity [6] was “inactive”, the Activity [7] was “Non-toxic” and the Activity [8] was “inactive”. For the same compound, the Activity [9] was “inactive”, the Activity [10] was “inactive” and the Activity [11] was “inactive”. For the same compound, the Activity [12] was “Active”, the Activity [13] was “tde” and the pIC50 [14] was 8.00. For the same compound, the Activity [15] was “tde”, the Activity [16] was “Non-toxic” and the Activity [17] was “Active”. The Activity [18] was > 50 µM, the pIC50 [19] was 8.70 and the Activity [20] was “Dose-dependent effect”. The Activity [2] was “Active”, the Activity [21] was “tde” and the Activity [22] was “inactive”. The pIC50 [23] was 7.48 and the pIC50 [24] was < 6.00.
